# According to patent publication US20230303540A1 (Merck Sharp & Dohme LLC, priority 2020, published 2023):
# Target: GST-tagged truncated human mutant G2019S LRRK2 (Homo sapiens, UniProt Q5S007, G2019S)
# Assay: LRRK2 G2019S Km ATP LanthaScreen assay
# Format: biochemical
# Conditions: 134 μM ATP (Km ATP), LRRKtide substrate, mean IC50 values; read-out: LRRK2 pIC50 (converted)
# Experimental: Unless otherwise noted, all reactions are magnetically stirred. Unless otherwise noted, when diethyl ether is used in the experiments described below, it is Fisher ACS certified material and is stabilized with BHT. Unless otherwise noted, “concentrated” and/or “solvent removed under reduced pressure” means evaporating the solvent from a solution or mixture using a rotary evaporator or vacuum pump. Unless otherwise noted, flash chromatography is carried out on a Teledyne Isco (Lincoln, NE), Analogix (Burlington, WI), or Biotage (Stockholm, SWE) automated chromatography system using a commercially available cartridge as the column. Columns may be purchased from Teledyne Isco, Analogix, Biotage, Varian (Palo Alto, CA), or Supelco (Bellefonte, PA) and are usually filled with silica gel as the stationary phase. Reverse phase prep-HPLC conditions, where used, can be found at the end of each experimental section. Aqueous solutions were concentrated on a Genevac (Ipswich, ENG) or by freeze-drying/lyophilization. Unless otherwise noted, all LRRK2 pIC50 data presented in tables refers to the LRRK2 G2019S Km ATP LanthaScreen™ assay (Life Technologies Corp., Carlsbad, CA) that is described in the Biological Assay section.
# The IC50 values reported herein were measured as follows.
# Biological Assay: LRRK2 Km ATP LanthaScreen™ Assay
# The LRRK2 kinase activity reported herein as IC50 values was determined with LanthaScreen™ technology from Life Technologies Corporation (Carlsbad, CA) using GST-tagged truncated human mutant G2019S LRRK2 in the presence of the fluorescein-labeled peptide substrate LRRKtide, also from Life Technologies. The data presented for the Km ATP LanthaScreen™ Assay represents mean IC50 values based on several test results and may have reasonable deviations depending on the specific conditions and reagents used. Assays were performed in the presence of 134 μM ATP (Km ATP). Upon completion, the assay was stopped and phosphorylated substrate detected with a terbium (Tb)-labeled anti-pERM antibody (cat. no. PV4898). The compound dose response was prepared by diluting a 10 mM stock of compound to a maximum concentration of 9.99 μM in 100% dimethylsulfoxide followed by custom fold serial dilution in dimethylsulfoxide nine times. Twenty nanoliters of each dilution was spotted via a Labcyte Echo onto a 384-well black-sided plate (Corning 3575) followed by 15 μl of a 1.25 nM enzyme solution in 1× assay buffer (50 mM Tris pH 8.5, 10 mM MgCl2, 0.01% Brij-35, 1 mM EGTA, 2 mM dithiothreitol, 0.05 mM sodium orthovanadate). Following a 15-minute incubation at room temperature, the kinase reaction was started with the addition of 5 μl of 400 nM fluorescein-labeled LRRKtide peptide substrate and 134 μM ATP solution in 1× assay buffer. The reaction was allowed to progress at ambient temperature for 90 minutes. The reaction was then stopped by the addition of 20 μl of TR-FRET Dilution Buffer (Life Technologies, Carlsbad, CA) containing 2 nM Tb-labeled anti-phospho LRRKtide antibody and 10 mM EDTA (Life Technologies, Carlsbad, CA). After an incubation of 1 hour at room temperature, the plate was read on an EnVision multimode plate reader (Perkin Elmer, Waltham, MA) with an excitation wavelength of 337 nm (Laser) and a reading emission at both 520 and 495 nm. Compound IC50s were interpolated from nonlinear regression best fits of the log of the final compound concentration, plotted as a function of the 520/495-nm emission ratio using Activity base. Abase uses a 4 parameter (4P) logistic fit based on the Levenberg-Marquardt algorithm.
row,SMILES,IC50
1,"Cc1c(Nc2ncc3cc(Cl)c(N4CCN(C5COCC5O)CC4)cc3n2)cnn1C (single isomer, unassigned) [Ex-6.24, (3S,4S) or (3R,4R) 4-(4-{6-chloro-2-[(1,5-dimethyl-1H-pyrazol-4-yl)amino]quinazolin-7-yl}piperazin-1-yl)oxolan-3-ol]",0.603 nM
2,"Cc1c(Nc2ncc3cc(Cl)c(N4CCN(C5COCC5O)CC4)cc3n2)cnn1C1CC1(F)F (single isomer, unassigned) [Ex-6.43, (3S,4S) or (3R,4R) 4-[4-(6-chloro-2-{[1-(2,2-(R) or (S)difluorocyclopropyl)-5-methyl-1H-pyrazol-4-yl]amino}quinazolin-7-yl)piperazin-1-yl]oxolan-3-ol]",7.92 nM
3,"Cc1cc2cnc(Nc3cnn(C4CC4(F)F)c3Cl)nc2cc1N1CCN([C@H]2COC[C@H]2O)CC1 (single isomer, unassigned) [Ex-5.1, (3S, 4S) or (3R, 4R) 4-(4-(2-((5-Chloro-1-(2,2-(R) or (S)difluorocyclopropyl)-1H-pyrazol-4-yl)amino)-6-methylquinazolin-7-yl)piperazin-1-yl)tetrahydrofuran-3-ol]",0.105 nM
4,"Cc1c(Nc2ncc3cc(Cl)c(N4CCN(C5(C)COCC5O)CC4)cc3n2)cnn1C1CC1 (single isomer, unassigned) [Ex-6.18, (3S,4S) or (3R,4R) 4-(4-{6-chloro-2-[(1-cyclopropyl-5-methyl-1H-pyrazol-4-yl)amino]quinazolin-7-yl}piperazin-1-yl)-4-methyloxolan-3-ol]",0.322 nM
5,"CN1CCC2(CCN(c3cc4nc(Nc5cnn(CC(C)(C)O)c5Cl)ncc4cc3Cl)C2)C1 (stereo not shown) [Ex-1.13, 1-(5-chloro-4-{[6-chloro-7-(7-methyl-2,7-diazaspiro[4.4]nonan-2-yl)quinazolin-2-yl]amino}-1H-pyrazol-1-yl)-2-methylpropan-2-ol]",21 nM
6,"CC1CCC12CN(c1cc3nc(Nc4cnn(C5(C)CC5)c4Cl)ncc3cc1Cl)C2 (single isomer, unassigned) [Ex-4.26, (R) or (S) 6-chloro-N-[5-chloro-1-(1-methylcyclopropyl)-1H-pyrazol-4-yl]-7-(5-methyl-2-azaspiro[3.3]heptan-2-yl)quinazolin-2-amine]",9.09 nM
7,"C[C@]1(O)[C@@H]2CC[C@H]1CN(c1cc3nc(Nc4cnn(C5CC5)c4)ncc3cc1Cl)C2 [Ex-1.36, (8-syn)-3-{6-chloro-2-[(1-cyclopropyl-1H-pyrazol-4-yl)amino]quinazolin-7-yl}-8-methyl-3-azabicyclo[3.2.1]octan-8-ol]",6.72 nM
8,C[C@]1(O)COCC12CCN(c1cc3nc(Nc4cnn(C5CC5)c4Cl)ncc3cc1Cl)CC2 [Ex-3.4],19.9 nM
9,"COCC12CC(n3cc(Nc4ncc5cc(Cl)c(N6C[C@H]7CC[C@@H](C6)[C@@]7(C)O)cc5n4)cn3)(C1)C2 [Ex-3.31, (8-syn)-3-[6-chloro-2-({1-[3-(methoxymethyl)bicyclo[1.1.1]pentan-1-yl]-1H-pyrazol-4-yl}amino)quinazolin-7-yl]-8-methyl-3-azabicyclo[3.2.1]octan-8-ol]",2.08 nM
10,"[2H]C([2H])([2H])n1nc(C(C)(C)n2nccn2)cc1Nc1ncc2cc(Cl)c(N3CCC(C)(O)CC3)cc2n1 [Ex-14.1, 1-(2-((3-(2-(2H-1,2,3-Triazol-2-yl)propan-2-yl)-1-(methyl-d3)-1H-pyrazol-5-yl)amino)-6-chloroquinazolin-7-yl)-4-methylpiperidin-4-ol]",4.11 nM
11,"CC1(N2CCN(c3cc4nc(Nc5cnn(C6CC6(F)F)c5Cl)ncc4cc3Cl)CC2)COCC1O (single isomer, unassigned) [Ex-6.2, (3S,4S) or (3R,4R) 4-(4-(6-chloro-2-((5-chloro-1-(2,2-(R) or (S)difluorocyclopropyl)-1H-pyrazol-4-yl)amino)quinazolin-7-yl)piperazin-1-yl)-4-methyltetrahydrofuran-3-ol]",0.08 nM
12,"CCc1cc2cnc(Nc3cnn(C4CC4(F)F)c3Cl)nc2cc1N1CCN(C2(C)COCC2O)CC1 (single isomer, unassigned) [Ex-8.3, (3S,4S) or (3R,4R) 4-(4-(2-((5-chloro-1-(2,2-(R) or (S)difluorocyclopropyl)-1H-pyrazol-4-yl)amino)-6-ethylquinazolin-7-yl)piperazin-1-yl)-4-methyltetrahydrofuran-3-ol]",0.745 nM
13,"CC1(N2CCN(c3cc4nc(Nc5cnn(C6CC6(F)F)c5Cl)ncc4cc3Cl)CC2)COCC1O (single isomer, unassigned) [Ex-6.33, (3S,4S) or (3R,4R) 4-[4-(6-chloro-2-{[5-chloro-1-(2,2-(R) or (S)difluorocyclopropyl)-1H-pyrazol-4-yl]amino}quinazolin-7-yl)piperazin-1-yl]-4-methyloxolan-3-ol]",0.212 nM
14,"CC1(O)CC2(CN(c3cc4nc(Nc5cnn(C6(C)CC6)c5Cl)ncc4cc3Cl)C2)C1 [Ex-4.27, 2-(6-chloro-2-{[5-chloro-1-(1-methylcyclopropyl)-1H-pyrazol-4-yl]amino}quinazolin-7-yl)-6-methyl-2-azaspiro[3.3]heptan-6-ol]",1.6 nM
15,"Cn1ncc(Nc2ncc3ccc(N4C(=O)C5CCC4C5)cc3n2)c1C(F)(F)F (single isomer, unassigned) [Ex-4.5, 2-(2-{[1-methyl-5-(trifluoromethyl)-1H-pyrazol-4-yl]amino}quinazolin-7-yl)-2-azabicyclo[2.2.1]heptan-3-one]",7.26 nM
16,"CCn1ncc(Nc2ncc3ccc(N4C(=O)OCC4C4CC4)cc3n2)c1C (single isomer, unassigned) [Ex-7.15, (R) or (S) 4-cyclopropyl-3-{2-[(1-ethyl-5-methyl-1H-pyrazol-4-yl)amino]quinazolin-7-yl}-1,3-oxazolidin-2-one]",9.26 nM
17,"OC1CCN(c2cc3nc(Nc4cnn(C5CC5)c4)ncc3cc2Cl)CC1 [Ex-3.7, 1-{6-chloro-2-[(1-cyclopropyl-1H-pyrazol-4-yl)amino]quinazolin-7-yl} piperidin-4-ol]",1.44 nM
18,"CC1CN(c2cc3nc(Nc4cnn(C5CC5)c4Cl)ncc3cc2Cl)CCN1CC(C)(C)O (stereo not shown) [Ex-1.32, 1-(4-{6-chloro-2-[(5-chloro-1-cyclopropyl-1H-pyrazol-4-yl)amino]quinazolin-7-yl}-2-methylpiperazin-1-yl)-2-methylpropan-2-ol]",5.49 nM
19,"CCNc1cc2nc(Nc3cnn(C4CCN(C5(C)COC5)CC4)c3Cl)ncc2cc1Cl [Ex-3.45, 6-chloro-N~2~-{5-chloro-1-[1-(3-methyloxetan-3-yl)piperidin-4-yl]-1H-pyrazol-4-yl}-N~7~- ethylquinazoline-2,7-diamine]",23.5 nM
20,"O[C@H]1CCN(c2cc3nc(Nc4cnn(CC(F)F)c4Cl)ncc3cc2Cl)C1 [Ex-1.17, (3S)-1-(6-chloro-2-{[5-chloro-1-(2,2-difluoroethyl)-1H-pyrazol-4-yl]amino}quinazolin-7-yl)pyrrolidin-3-ol]",9.26 nM
21,"CO[C@H]1C[C@@H](n2ncc(Nc3ncc4cc(Cl)c(N5CCC(C)(O)CC5)cc4n3)c2C)C1 [Ex-6.14, 1-(6-chloro-2-{[1-(cis-3-methoxycyclobutyl)-5-methyl-1H-pyrazol-4-yl]amino}quinazolin-7-yl)-4-methylpiperidin-4-ol]",1.65 nM
22,"Cc1cc(Nc2ncc3cc(Cl)c(N4CCN(C5(C)COCC5O)[C@@H](C)C4)cc3n2)n(C2CC2)n1 (single isomer, unassigned) [Ex-13.9, 4-((S or R) (3S,4S) or (3R,4R)-4-(6-chloro-2-((1-cyclopropyl-3-methyl-1H-pyrazol-5-yl)amino)quinazolin-7-yl)-2-methylpiperazin-1-yl)-4-methyltetrahydrofuran-3-ol]",97.5 nM
